The values that follow come from ChEMBL document CHEMBL4706545, “Antiproliferative effect of mitochondria-targeting allobetulin 1,2,3-triazolium salt derivatives and their mechanism of inducing apoptosis of cancer cells” (Eur J Med Chem, 2020).

For one experiment, the system named is HeLa. Kind of experiment: Cytotoxicity against human HeLa cells assessed as reduction in cell viability incubated for 48 hrs by MTT assay. In kind it is functional, cell-based.
The test system of the next experiment is HepG2. Kind of experiment: Cytotoxicity against human HepG2 cells assessed as reduction in cell viability incubated for 48 hrs by MTT assay. To be noted: HepG2, 48 h. In kind it is functional, cell-based. (Formazan colour is commonly taken as a measure of viable cells.)
In a further experiment the test system is L02. Put plainly: Cytotoxicity against human HL7702 cells assessed as reduction in cell viability incubated for 48 hrs by MTT assay. In kind it is ADME, cell-based. To be noted: L02, 48 h.
In the next experiment the test system is SGC-7901. Put plainly: Cytotoxicity against human SGC-7901 cells assessed as reduction in cell viability incubated for 48 hrs by MTT assay. Format: functional, cell-based. To be noted: SGC-7901, 48 h.
The subject of a further experiment is ECa-109 cell line. Kind of experiment: Cytotoxicity against human ECa-109 cells assessed as reduction in cell viability incubated for 48 hrs by MTT assay. In kind it is functional, cell-based. To be noted: ECa-109, 48 h.

As for `COc1cccc(Cn2nnc3c2C(C)(C)[C@@H]2CC[C@]4(C)[C@H](CC[C@@H]5[C@H]6[C@H]7OC[C@@]6(CCC7(C)C)CC[C@]54C)[C@@]2(C)C3)c1`, the IC50 amounted to 11.2 µM with HeLa; 12.7 µM in the experiment on HepG2; 10.5 µM in the experiment with L02; 12 µM in the experiment on SGC-7901; 10.4 µM in the experiment with ECa-109 cell line.

Take `CC1(C)CC[C@]23CC[C@]4(C)[C@H](CC[C@@H]5[C@@]6(C)Cc7nnn(CCc8c[nH]c9ccccc89)c7C(C)(C)[C@@H]6CC[C@]54C)[C@H]2[C@H]1OC3`: the 50% inhibitory concentration (IC50) turned out to be 22.1 µM in the experiment with HeLa; 14.4 µM in the experiment with HepG2; 10.3 µM in the experiment on L02; 19.8 µM in the experiment on SGC-7901; 18.2 µM with ECa-109 cell line.

Take `CC1(C)CC[C@]23CC[C@]4(C)[C@H](CC[C@@H]5[C@@]6(C)Cc7nnn(Cc8ccc(C(F)(F)F)cc8)c7C(C)(C)[C@@H]6CC[C@]54C)[C@H]2[C@H]1OC3`: the IC50 in the experiment on HeLa is 28.5 µM; in the experiment with HepG2, 28.9 µM; with L02, 25.6 µM; in the experiment on SGC-7901, 32.2 µM; with ECa-109 cell line, 33.9 µM.

As to `C[n+]1nn(CC(c2ccccc2)c2ccccc2)c2c1C[C@]1(C)[C@H]3CC[C@@H]4[C@H]5[C@H]6OC[C@@]5(CCC6(C)C)CC[C@@]4(C)[C@]3(C)CC[C@H]1C2(C)C`, the IC50 in the experiment on HeLa is 2.67 µM; in the experiment with HepG2 it was 2.96 µM; with L02 it was 1.61 µM; in the experiment with SGC-7901, 2.18 µM; in the experiment with ECa-109 cell line it was 2.28 µM.

Regarding `CCCCCCCCn1n[n+](C)c2c1C(C)(C)[C@@H]1CC[C@]3(C)[C@H](CC[C@@H]4[C@H]5[C@H]6OC[C@@]5(CCC6(C)C)CC[C@]43C)[C@@]1(C)C2`, the IC50 in the experiment with HeLa was 2.55 µM; in the experiment with HepG2, 2.01 µM; in the experiment on L02, 1.34 µM; with SGC-7901 it was 2.18 µM; in the experiment with ECa-109 cell line, 3 µM.

For `CC1(C)CC[C@]23CC[C@]4(C)[C@H](CC[C@@H]5[C@@]6(C)Cc7nnn(Cc8ccccn8)c7C(C)(C)[C@@H]6CC[C@]54C)[C@H]2[C@H]1OC3`, the IC50 in the experiment with HeLa, in the experiment on HepG2, in the experiment on L02, in the experiment on SGC-7901 and in the experiment on ECa-109 cell line was above 80 µM each time.

Regarding `CCCCCCn1n[n+](C)c2c1C(C)(C)[C@@H]1CC[C@]3(C)[C@H](CC[C@@H]4[C@H]5[C@H]6OC[C@@]5(CCC6(C)C)CC[C@]43C)[C@@]1(C)C2`, the IC50 in the experiment on HeLa worked out at 2.45 µM; in the experiment on HepG2, 1.93 µM; with L02, 1.33 µM; in the experiment on SGC-7901 it was 1.65 µM; in the experiment with ECa-109 cell line, 3.08 µM.

On to `C[n+]1nn(Cc2ccccc2)c2c1C[C@]1(C)[C@H]3CC[C@@H]4[C@H]5[C@H]6OC[C@@]5(CCC6(C)C)CC[C@@]4(C)[C@]3(C)CC[C@H]1C2(C)C`, for which the IC50 stood at 3.02 µM with HeLa; 2.89 µM in the experiment on HepG2; 2 µM with L02; 2.83 µM in the experiment on SGC-7901; 3.29 µM in the experiment with ECa-109 cell line.

On to `C[n+]1nn(Cc2ccc(C(F)(F)F)cc2)c2c1C[C@]1(C)[C@H]3CC[C@@H]4[C@H]5[C@H]6OC[C@@]5(CCC6(C)C)CC[C@@]4(C)[C@]3(C)CC[C@H]1C2(C)C`, for which the IC50 in the experiment on HeLa is 3.06 µM; in the experiment on HepG2, 2.49 µM; in the experiment with L02 it was 2.26 µM; in the experiment on SGC-7901, 2.84 µM; in the experiment with ECa-109 cell line it was 3.18 µM.

For `COc1cccc(CCn2nnc3c2C(C)(C)[C@@H]2CC[C@]4(C)[C@H](CC[C@@H]5[C@H]6[C@H]7OC[C@@]6(CCC7(C)C)CC[C@]54C)[C@@]2(C)C3)c1`, the IC50 in the experiment on HeLa is 23.6 µM; with HepG2, 31.9 µM; with L02 it was 20.9 µM; in the experiment on SGC-7901, 39.8 µM; with ECa-109 cell line, 25.5 µM.

In the case of `COc1cccc(Cn2n[n+](C)c3c2C(C)(C)[C@@H]2CC[C@]4(C)[C@H](CC[C@@H]5[C@H]6[C@H]7OC[C@@]6(CCC7(C)C)CC[C@]54C)[C@@]2(C)C3)c1`, the IC50 in the experiment on HeLa was found to be 2.33 µM; in the experiment on HepG2 it was 2.18 µM; in the experiment on L02, 1.72 µM; in the experiment on SGC-7901, 1.81 µM; with ECa-109 cell line, 2.81 µM.

`Cc1ccc(Cn2n[n+](C)c3c2C(C)(C)[C@@H]2CC[C@]4(C)[C@H](CC[C@@H]5[C@H]6[C@H]7OC[C@@]6(CCC7(C)C)CC[C@]54C)[C@@]2(C)C3)cc1`: the IC50 is 2.21 µM in the experiment on HeLa; 2.28 µM with HepG2; 1.47 µM in the experiment on L02; 2.16 µM in the experiment with SGC-7901; 2.62 µM in the experiment on ECa-109 cell line.

`COC(Cn1nnc2c1C(C)(C)[C@@H]1CC[C@]3(C)[C@H](CC[C@@H]4[C@H]5[C@H]6OC[C@@]5(CCC6(C)C)CC[C@]43C)[C@@]1(C)C2)OC`: the IC50 in the experiment with HeLa, with HepG2, in the experiment on L02, in the experiment on SGC-7901 and with ECa-109 cell line was above 80 µM throughout.

`COc1ccc(CCn2nnc3c2C(C)(C)[C@@H]2CC[C@]4(C)[C@H](CC[C@@H]5[C@H]6[C@H]7OC[C@@]6(CCC7(C)C)CC[C@]54C)[C@@]2(C)C3)cc1`: the IC50 was 42.5 µM in the experiment with HeLa; 36.6 µM with HepG2; 39.3 µM with L02; 45.2 µM in the experiment with SGC-7901; 51.8 µM in the experiment on ECa-109 cell line.

`COc1cc(Cn2nnc3c2C(C)(C)[C@@H]2CC[C@]4(C)[C@H](CC[C@@H]5[C@H]6[C@H]7OC[C@@]6(CCC7(C)C)CC[C@]54C)[C@@]2(C)C3)cc(OC)c1OC`: the IC50 was found to be 9.07 µM in the experiment with HeLa; 12.1 µM in the experiment with HepG2; 6.65 µM in the experiment with L02; 10.7 µM in the experiment with SGC-7901; 6.24 µM with ECa-109 cell line.

With `CC1(C)CC[C@]23CC[C@]4(C)[C@H](CC[C@@H]5[C@@]6(C)Cc7nnn(Cc8ccccc8)c7C(C)(C)[C@@H]6CC[C@]54C)[C@H]2[C@H]1OC3`, the IC50 in the experiment with HeLa was above 80 µM; in the experiment on HepG2, 59.4 µM; in the experiment with L02, 38.5 µM; with SGC-7901, 55.7 µM; in the experiment on ECa-109 cell line, 53.2 µM.

On to `C[n+]1nn(Cc2ccc(F)cc2)c2c1C[C@]1(C)[C@H]3CC[C@@H]4[C@H]5[C@H]6OC[C@@]5(CCC6(C)C)CC[C@@]4(C)[C@]3(C)CC[C@H]1C2(C)C`, for which the IC50 in the experiment with HeLa was 3.03 µM; in the experiment on HepG2 it was 2.89 µM; in the experiment on L02, 2.2 µM; in the experiment on SGC-7901 it was 3.02 µM; in the experiment with ECa-109 cell line, 3.06 µM.

In the case of `COc1ccccc1CCn1n[n+](C)c2c1C(C)(C)[C@@H]1CC[C@]3(C)[C@H](CC[C@@H]4[C@H]5[C@H]6OC[C@@]5(CCC6(C)C)CC[C@]43C)[C@@]1(C)C2`, the IC50 with HeLa was determined as 1.67 µM; in the experiment with HepG2 it was 1.55 µM; in the experiment on L02 it was 1.4 µM; with SGC-7901 it was 1.24 µM; in the experiment on ECa-109 cell line it was 1.67 µM.

Regarding `COC(Cn1n[n+](C)c2c1C(C)(C)[C@@H]1CC[C@]3(C)[C@H](CC[C@@H]4[C@H]5[C@H]6OC[C@@]5(CCC6(C)C)CC[C@]43C)[C@@]1(C)C2)OC`, the IC50 in the experiment on HeLa worked out at 5.39 µM; in the experiment on HepG2, 6.33 µM; in the experiment with L02, 4.1 µM; in the experiment on SGC-7901 it was 6.67 µM; with ECa-109 cell line it was 5.53 µM.

`COc1ccc(CCn2n[n+](C)c3c2C(C)(C)[C@@H]2CC[C@]4(C)[C@H](CC[C@@H]5[C@H]6[C@H]7OC[C@@]6(CCC7(C)C)CC[C@]54C)[C@@]2(C)C3)cc1`: the IC50 with HeLa stood at 2.85 µM; with HepG2, 2.91 µM; with L02, 2.09 µM; with SGC-7901, 2.39 µM; in the experiment on ECa-109 cell line, 1.97 µM.

On to `COc1cc(Cn2n[n+](C)c3c2C(C)(C)[C@@H]2CC[C@]4(C)[C@H](CC[C@@H]5[C@H]6[C@H]7OC[C@@]6(CCC7(C)C)CC[C@]54C)[C@@]2(C)C3)cc(OC)c1OC`, for which the IC50 in the experiment with HeLa was found to be 3.8 µM; with HepG2, 3.04 µM; with L02, 3.8 µM; in the experiment on SGC-7901 it was 5.56 µM; in the experiment on ECa-109 cell line, 3.35 µM.

As for `COc1ccc(Cn2nnc3c2C(C)(C)[C@@H]2CC[C@]4(C)[C@H](CC[C@@H]5[C@H]6[C@H]7OC[C@@]6(CCC7(C)C)CC[C@]54C)[C@@]2(C)C3)cc1`, the IC50 worked out at 12.7 µM with HeLa; 13.7 µM in the experiment on HepG2; 11.2 µM in the experiment with L02; 16.9 µM with SGC-7901; 17.2 µM in the experiment on ECa-109 cell line.

In the case of `COc1cccc(CCn2n[n+](C)c3c2C(C)(C)[C@@H]2CC[C@]4(C)[C@H](CC[C@@H]5[C@H]6[C@H]7OC[C@@]6(CCC7(C)C)CC[C@]54C)[C@@]2(C)C3)c1`, the half-maximal inhibitory concentration (IC50) is 2.87 µM in the experiment with HeLa; 2.72 µM with HepG2; 2.21 µM in the experiment with L02; 2.37 µM in the experiment with SGC-7901; 2.06 µM in the experiment with ECa-109 cell line.

For the molecule `C[n+]1nn(CCc2c[nH]c3ccccc23)c2c1C[C@]1(C)[C@H]3CC[C@@H]4[C@H]5[C@H]6OC[C@@]5(CCC6(C)C)CC[C@@]4(C)[C@]3(C)CC[C@H]1C2(C)C`, the IC50 turned out to be 3.19 µM with HeLa; 3.17 µM in the experiment on HepG2; 2.9 µM in the experiment on L02; 3.05 µM in the experiment on SGC-7901; 3.13 µM with ECa-109 cell line.

In the case of `CC1(C)CC[C@]23CC[C@]4(C)[C@H](CC[C@@H]5[C@@]6(C)Cc7nnn(Cc8c(F)cccc8Cl)c7C(C)(C)[C@@H]6CC[C@]54C)[C@H]2[C@H]1OC3`, the IC50 in the experiment with HeLa was found to be 23.3 µM; with HepG2, 24.3 µM; with L02, 19.5 µM; with SGC-7901, 26.1 µM; in the experiment with ECa-109 cell line, 27 µM.

The IC50 is the concentration that gives 50% inhibition.
